Data taken from PubChem BioAssay (NCI).
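Five concentrations, 48 hours, 96-well plates. GI50: concentration for 50% inhibition of growth. TGI: total growth inhibition.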

How the values were obtained:
Assay in all cases: NCI-60 cell line screen, 48 h
[1] = tested on: UACC-257 melanoma
[2] = tested on: MCF7 breast
[3] = tested on: PC-3 prostate
[4] = tested on: SK-MEL-2 melanoma
[5] = tested on: HCC-2998 colon
[6] = tested on: UO-31 renal
[7] = tested on: NCI-H522 lung
[8] = tested on: A498 renal
[9] = tested on: EKVX NSCLC
[10] = tested on: TK-10 renal
[11] = tested on: COLO 205 colon
[12] = tested on: SK-OV-3 ovarian
[13] = tested on: MALME-3M melanoma
[14] = tested on: OVCAR-5 ovarian
[15] = tested on: SNB-19 CNS
[16] = tested on: SF-295 CNS
[17] = tested on: NCI-H23 lung
[18] = tested on: SNB-75 CNS
[19] = tested on: LOX IMVI melanoma
[20] = tested on: DU-145 prostate
[21] = tested on: SF-268 CNS
[22] = tested on: UACC-62 melanoma
[23] = tested on: SK-MEL-5 melanoma
[24] = tested on: HCT-15 colon
[25] = tested on: IGROV1 ovarian
[26] = tested on: T-47D breast
[27] = tested on: A549 NSCLC
[28] = tested on: SW-620 colon
[29] = tested on: ACHN renal
[30] = tested on: NCI-H460 lung
[31] = tested on: HOP-62 NSCLC
[32] = tested on: OVCAR-3 ovarian
[33] = tested on: SK-MEL-28 melanoma
[34] = tested on: M14 melanoma
[35] = tested on: K-562 leukemia
[36] = tested on: CCRF-CEM leukemia
[37] = tested on: HOP-92 NSCLC
[38] = tested on: SN12C renal
[39] = tested on: HT29 colon
[40] = tested on: U251 CNS
[41] = tested on: OVCAR-4 ovarian
[42] = tested on: KM12 colon
[43] = tested on: RXF 393 renal
[44] = tested on: NCI/ADR-RES ovarian
[45] = tested on: MDA-MB-435
[46] = tested on: MDA-MB-231 breast
[47] = tested on: BT-549 breast
[48] = tested on: CAKI-1 renal
[49] = tested on: MOLT-4 leukemia
[50] = tested on: OVCAR-8 ovarian
[51] = tested on: SF-539 CNS
[52] = tested on: HL-60(TB) leukemia
[53] = tested on: HS 578T breast
[54] = tested on: RPMI-8226 leukemia
[55] = tested on: 786-0 renal
[56] = tested on: NCI-H226 lung
[57] = tested on: HCT-116 colon
[58] = tested on: SR leukemia

For `Clc1nc(Cl)c2ncn(C/C=C\COc3cccc(OC/C=C\Cn4cnc5c(Cl)nc(Cl)nc54)c3)c2n1`, the GI50 [1] was > 100 µM, the TGI [1] was > 100 µM and the GI50 [2] was > 100 µM. The TGI [2] was > 100 µM, the GI50 [3] was > 100 µM and the TGI [3] was > 100 µM. The GI50 [4] was > 100 µM, the TGI [4] was > 100 µM and the GI50 [5] was > 100 µM. For the same molecule, the TGI [5] was > 100 µM, the GI50 [6] was > 100 µM and the TGI [6] was > 100 µM. For the same molecule, the GI50 [7] was > 100 µM, the TGI [7] was > 100 µM and the GI50 [8] was > 100 µM. For the same molecule, the TGI [8] was > 100 µM, the GI50 [9] was > 100 µM and the TGI [9] was > 100 µM. For the same molecule, the GI50 [10] was > 100 µM, the TGI [10] was > 100 µM and the GI50 [11] was > 100 µM. The TGI [11] was > 100 µM, the GI50 [12] was > 100 µM and the TGI [12] was > 100 µM. For the same molecule, the GI50 [13] was > 100 µM, the TGI [13] was > 100 µM and the GI50 [14] was > 100 µM. For the same molecule, the TGI [14] was > 100 µM, the GI50 [15] was > 100 µM and the TGI [15] was > 100 µM. The GI50 [16] was > 100 µM, the TGI [16] was > 100 µM and the GI50 [17] was > 100 µM. The TGI [17] was > 100 µM, the GI50 [18] was > 100 µM and the TGI [18] was > 100 µM. For the same molecule, the GI50 [19] was 19.3 µM, the TGI [19] was 43.8 µM and the GI50 [20] was > 100 µM. The TGI [20] was > 100 µM, the GI50 [21] was > 100 µM and the TGI [21] was > 100 µM. For the same molecule, the GI50 [22] was > 100 µM, the TGI [22] was > 100 µM and the GI50 [23] was > 100 µM. The TGI [23] was > 100 µM, the GI50 [24] was > 100 µM and the TGI [24] was > 100 µM. The GI50 [25] was > 100 µM, the TGI [25] was > 100 µM and the GI50 [26] was 88.1 µM. For the same molecule, the TGI [26] was > 100 µM, the GI50 [27] was > 100 µM and the TGI [27] was > 100 µM. For the same molecule, the GI50 [28] was > 100 µM, the TGI [28] was > 100 µM and the GI50 [29] was > 100 µM. For the same molecule, the TGI [29] was > 100 µM, the GI50 [30] was > 100 µM and the TGI [30] was > 100 µM. The GI50 [31] was > 100 µM, the TGI [31] was > 100 µM and the GI50 [32] was > 100 µM. For the same molecule, the TGI [32] was > 100 µM, the GI50 [33] was > 100 µM and the TGI [33] was > 100 µM. The GI50 [34] was > 100 µM, the TGI [34] was > 100 µM and the GI50 [35] was 53.8 µM. The TGI [35] was > 100 µM, the GI50 [36] was 95.8 µM and the TGI [36] was > 100 µM. The GI50 [37] was > 100 µM, the TGI [37] was > 100 µM and the GI50 [38] was > 100 µM. The TGI [38] was > 100 µM, the GI50 [39] was > 100 µM and the TGI [39] was > 100 µM. For the same molecule, the GI50 [40] was > 100 µM, the TGI [40] was > 100 µM and the GI50 [41] was > 100 µM. For the same molecule, the TGI [41] was > 100 µM, the GI50 [42] was > 100 µM and the TGI [42] was > 100 µM. The GI50 [43] was 48.8 µM, the TGI [43] was > 100 µM and the GI50 [44] was > 100 µM. For the same molecule, the TGI [44] was > 100 µM, the GI50 [45] was > 100 µM and the TGI [45] was > 100 µM. The GI50 [46] was > 100 µM, the TGI [46] was > 100 µM and the GI50 [47] was > 100 µM. The TGI [47] was > 100 µM, the GI50 [48] was > 100 µM and the TGI [48] was > 100 µM. For the same molecule, the GI50 [49] was > 100 µM, the TGI [49] was > 100 µM and the GI50 [50] was > 100 µM. The TGI [50] was > 100 µM, the GI50 [51] was > 100 µM and the TGI [51] was > 100 µM. The GI50 [52] was > 100 µM, the TGI [52] was > 100 µM and the GI50 [53] was > 100 µM. For the same molecule, the TGI [53] was > 100 µM, the GI50 [54] was > 100 µM and the TGI [54] was > 100 µM. For the same molecule, the GI50 [55] was > 100 µM, the TGI [55] was > 100 µM and the GI50 [56] was 43.3 µM. For the same molecule, the TGI [56] was > 100 µM.

In the case of `CCCCCCCCCC(CCCC(O)CC(=O)O)OC1OC(COC2OC(C)C(O)C(O)C2O)C(O)C(O)C1OC1OC(CO)C(O)C(O)C1OC1OC(C)C(OC(=O)CC(C)C)C(O)C1O` (centres undefined), the GI50 [1] is reported as > 60 µM, the TGI [1] is reported as > 60 µM and the GI50 [57] is reported as > 60 µM. For the same molecule, the TGI [57] was > 60 µM, the GI50 [2] was > 60 µM and the TGI [2] was > 60 µM. The GI50 [3] was > 60 µM, the TGI [3] was > 60 µM and the GI50 [5] was > 60 µM. The TGI [5] was > 60 µM, the GI50 [6] was > 60 µM and the TGI [6] was > 60 µM. The GI50 [7] was > 60 µM, the TGI [7] was > 60 µM and the GI50 [8] was 0.459 µM. For the same molecule, the TGI [8] was 34.5 µM, the GI50 [9] was > 60 µM and the TGI [9] was > 60 µM. For the same molecule, the GI50 [10] was > 60 µM, the TGI [10] was > 60 µM and the GI50 [11] was > 60 µM. For the same molecule, the TGI [11] was > 60 µM, the GI50 [12] was > 60 µM and the TGI [12] was > 60 µM. For the same molecule, the GI50 [13] was > 60 µM, the TGI [13] was > 60 µM and the GI50 [14] was > 60 µM. The TGI [14] was > 60 µM, the GI50 [15] was > 60 µM and the TGI [15] was > 60 µM. The GI50 [16] was > 60 µM, the TGI [16] was > 60 µM and the GI50 [17] was > 60 µM. For the same molecule, the TGI [17] was > 60 µM, the GI50 [18] was > 60 µM and the TGI [18] was > 60 µM. For the same molecule, the GI50 [19] was > 60 µM, the TGI [19] was > 60 µM and the GI50 [20] was > 60 µM. The TGI [20] was > 60 µM, the GI50 [21] was > 60 µM and the TGI [21] was > 60 µM. For the same molecule, the GI50 [22] was > 60 µM, the TGI [22] was > 60 µM and the GI50 [23] was > 60 µM. For the same molecule, the TGI [23] was > 60 µM, the GI50 [24] was > 60 µM and the TGI [24] was > 60 µM. For the same molecule, the GI50 [25] was > 60 µM, the TGI [25] was > 60 µM and the GI50 [26] was > 60 µM. The TGI [26] was > 60 µM, the GI50 [27] was > 60 µM and the TGI [27] was > 60 µM. For the same molecule, the GI50 [28] was > 60 µM, the TGI [28] was > 60 µM and the GI50 [29] was > 60 µM. For the same molecule, the TGI [29] was > 60 µM, the GI50 [30] was > 60 µM and the TGI [30] was > 60 µM. For the same molecule, the GI50 [58] was > 60 µM, the TGI [58] was > 60 µM and the GI50 [31] was > 60 µM. The TGI [31] was > 60 µM, the GI50 [32] was > 60 µM and the TGI [32] was > 60 µM. The GI50 [33] was > 60 µM, the TGI [33] was > 60 µM and the GI50 [34] was > 60 µM. The TGI [34] was > 60 µM, the GI50 [35] was > 60 µM and the TGI [35] was > 60 µM. The GI50 [36] was > 60 µM, the TGI [36] was > 60 µM and the GI50 [38] was > 60 µM. The TGI [38] was > 60 µM, the GI50 [39] was > 60 µM and the TGI [39] was > 60 µM. The GI50 [40] was > 60 µM, the TGI [40] was > 60 µM and the GI50 [41] was > 60 µM. The TGI [41] was > 60 µM, the GI50 [42] was > 60 µM and the TGI [42] was > 60 µM. For the same molecule, the GI50 [43] was > 60 µM, the TGI [43] was > 60 µM and the GI50 [44] was > 60 µM. The TGI [44] was > 60 µM, the GI50 [45] was > 60 µM and the TGI [45] was > 60 µM. The GI50 [46] was > 60 µM, the TGI [46] was > 60 µM and the GI50 [47] was > 60 µM. The TGI [47] was > 60 µM, the GI50 [48] was > 60 µM and the TGI [48] was > 60 µM. For the same molecule, the GI50 [49] was > 60 µM, the TGI [49] was > 60 µM and the GI50 [50] was > 60 µM. For the same molecule, the TGI [50] was > 60 µM, the GI50 [51] was > 60 µM and the TGI [51] was > 60 µM. For the same molecule, the GI50 [52] was > 60 µM, the TGI [52] was > 60 µM and the GI50 [53] was > 60 µM. For the same molecule, the TGI [53] was > 60 µM, the GI50 [54] was > 60 µM and the TGI [54] was > 60 µM. The GI50 [55] was > 60 µM, the TGI [55] was > 60 µM and the GI50 [56] was > 60 µM. The TGI [56] was > 60 µM.
